Reference: ChEMBL document CHEMBL4425182, “Trypsin inhibitors for the treatment of pancreatitis” (Bioorg Med Chem Lett, 2016)

Experiments:
Serine protease 1 = Serine protease 1 (Homo sapiens, UniProt P07477); test: Inhibition of human PRSS1 assessed as enzymatic cleavage of Benzoyl-GlyPro-Arg'Rh110-gammaGlu-OH by fluorescence analysis
[1] = molecular target: Voltage-gated inwardly rectifying potassium channel KCNH2 (Homo sapiens, UniProt Q12809); test: Displacement of [3H]-dofetilide from human ERG expressed in HEK293 cells measured after 90 mins by scintillation proximity assay; format: cell-based
[2] = Dissociation constant, pKa of the compound; format: physicochemical
Prothrombin = Prothrombin (Homo sapiens, UniProt P00734); test: Inhibition of human thrombin
Coagulation factor X = Coagulation factor X (Homo sapiens, UniProt P00742); test: Inhibition of human f10a
Neutrophil elastase = molecular target: T1, Neutrophil elastase (Homo sapiens, UniProt P08246); test: Inhibition of human neutrophil elastase
T1 sequence (P08246 whole entry): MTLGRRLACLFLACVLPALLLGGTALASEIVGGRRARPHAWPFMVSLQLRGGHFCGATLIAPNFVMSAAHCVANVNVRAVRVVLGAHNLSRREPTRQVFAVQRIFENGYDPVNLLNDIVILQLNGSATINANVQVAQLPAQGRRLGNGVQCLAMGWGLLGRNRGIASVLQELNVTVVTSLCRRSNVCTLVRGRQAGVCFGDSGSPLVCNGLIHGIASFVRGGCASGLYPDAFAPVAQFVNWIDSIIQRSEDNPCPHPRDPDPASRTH

Chymotrypsin = Chymotrypsin (Homo sapiens, UniProt Q99895+P17538+P40313+Q6GPI1); test: Inhibition of human chymotrypsin; format: protein assay
[3] = Solubility of the compound at pH 6.8; format: physicochemical; settings: buffer
[4] = Lipophilicity, log P of the compound; format: physicochemical; settings: octanol/water
[5] = Clearance in Sprague-Dawley rat at 1 mg/kg, iv; format: ADME, organism-based; settings: in vivo
[6] = AUC (0 to 24 hrs) in Sprague-Dawley rat at 1 mg/kg, iv; format: ADME, organism-based; design: time < 24 hr, dose 1 mg/kg, route intravenous; settings: in vivo

Chain of Coagulation factor X (P00742 41-179 limits assumed): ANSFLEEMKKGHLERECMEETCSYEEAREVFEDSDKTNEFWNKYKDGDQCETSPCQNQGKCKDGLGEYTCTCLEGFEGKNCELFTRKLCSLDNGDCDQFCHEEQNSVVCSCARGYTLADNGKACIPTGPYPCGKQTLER
Chain of Coagulation factor X (P00742 235-488 limits assumed): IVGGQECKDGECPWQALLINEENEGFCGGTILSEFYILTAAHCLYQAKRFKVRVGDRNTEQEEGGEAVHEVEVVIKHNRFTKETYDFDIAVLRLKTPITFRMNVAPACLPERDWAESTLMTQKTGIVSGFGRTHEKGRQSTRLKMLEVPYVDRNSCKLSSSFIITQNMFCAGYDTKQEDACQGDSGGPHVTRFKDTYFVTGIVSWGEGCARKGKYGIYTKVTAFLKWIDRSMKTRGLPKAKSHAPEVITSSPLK
Chain of Serine protease 1 (P07477 whole entry): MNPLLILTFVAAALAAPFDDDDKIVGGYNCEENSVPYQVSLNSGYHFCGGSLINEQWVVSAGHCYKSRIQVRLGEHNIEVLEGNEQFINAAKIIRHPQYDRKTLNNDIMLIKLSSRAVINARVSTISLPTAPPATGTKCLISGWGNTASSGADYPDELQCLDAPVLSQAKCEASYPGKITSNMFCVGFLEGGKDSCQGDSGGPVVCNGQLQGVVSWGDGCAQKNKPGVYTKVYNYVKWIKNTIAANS
Chain of Voltage-gated inwardly rectifying potassium channel KCNH2 (Q12809 whole entry): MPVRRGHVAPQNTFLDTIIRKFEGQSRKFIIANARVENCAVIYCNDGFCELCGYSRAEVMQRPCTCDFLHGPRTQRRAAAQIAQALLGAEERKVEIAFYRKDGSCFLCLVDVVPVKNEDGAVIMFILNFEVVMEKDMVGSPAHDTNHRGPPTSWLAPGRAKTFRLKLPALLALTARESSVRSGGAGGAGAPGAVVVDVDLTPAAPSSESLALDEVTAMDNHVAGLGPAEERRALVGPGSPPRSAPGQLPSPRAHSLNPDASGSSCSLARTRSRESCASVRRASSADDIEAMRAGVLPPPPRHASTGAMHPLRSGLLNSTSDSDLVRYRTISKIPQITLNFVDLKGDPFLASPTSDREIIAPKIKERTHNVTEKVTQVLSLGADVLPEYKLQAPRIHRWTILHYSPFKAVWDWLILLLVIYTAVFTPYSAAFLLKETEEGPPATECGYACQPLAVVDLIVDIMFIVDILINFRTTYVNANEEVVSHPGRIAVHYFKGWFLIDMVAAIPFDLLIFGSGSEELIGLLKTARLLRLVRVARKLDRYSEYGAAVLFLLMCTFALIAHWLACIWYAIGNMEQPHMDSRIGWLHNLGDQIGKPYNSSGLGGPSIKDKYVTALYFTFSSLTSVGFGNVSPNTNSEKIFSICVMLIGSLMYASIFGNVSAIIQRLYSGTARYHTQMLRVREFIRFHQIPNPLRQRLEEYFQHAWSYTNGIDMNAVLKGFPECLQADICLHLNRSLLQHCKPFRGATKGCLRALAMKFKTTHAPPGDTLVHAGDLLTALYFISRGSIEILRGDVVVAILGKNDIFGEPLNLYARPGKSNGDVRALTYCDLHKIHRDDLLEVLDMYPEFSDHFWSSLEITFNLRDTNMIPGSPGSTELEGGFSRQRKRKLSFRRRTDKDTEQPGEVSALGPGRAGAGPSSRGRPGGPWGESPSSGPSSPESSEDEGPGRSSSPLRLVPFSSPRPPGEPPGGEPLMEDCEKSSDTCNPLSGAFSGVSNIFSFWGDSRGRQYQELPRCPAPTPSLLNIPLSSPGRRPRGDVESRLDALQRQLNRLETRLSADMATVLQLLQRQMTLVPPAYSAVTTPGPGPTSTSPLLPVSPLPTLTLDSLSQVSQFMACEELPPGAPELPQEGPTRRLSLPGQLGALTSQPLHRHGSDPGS

Compound | IC50 (Serine protease 1) | IC50 [1] | other results
CNC(=O)[C@@H]1C[C@H](N2CCc3c(cccc3OCCc3ccccc3)C2)CN1C(=O)c1ccc(CN)c(OC)c1 | 0.003 µM | 4 µM | –
NCc1ccc(C(=O)N2C[C@@H](n3cc(C4CC4)nn3)C[C@H]2C(=O)NCC(c2ccccc2)c2ccccc2)cc1F | 31 µM | – | pKa [2]: 6.2
COc1cc(C(=O)N2C[C@@H](n3cc(C4CC4)nn3)C[C@H]2C(=O)N[C@H]2CCCC[C@@H]2c2ccccc2)ccc1CN | 0.019 µM | – | IC50 (Prothrombin): 54 µM; IC50 (Coagulation factor X): 72 µM; IC50 (Neutrophil elastase): > 100 µM; IC50 (Chymotrypsin): > 100 µM
CNC(=O)[C@@H]1C[C@H](N2CCc3c(ncnc3OCCc3ccccc3)C2)CN1C(=O)c1ccc(CN)c(OC)c1 | 0.005 µM | > 30 µM | –
NCc1ccc(C(=O)N2C[C@@H](n3cc(C4CC4)nn3)C[C@H]2C(=O)NCC(c2ccccc2)c2ccccc2)cc1 | 0.11 µM | 0.5 µM | pKa [2]: 8.5; solubility [3]: > 1000 µM; logP [4]: 3; IC50 (Prothrombin): 94 µM; IC50 (Coagulation factor X): 71 µM; IC50 (Neutrophil elastase): > 100 µM; IC50 (Chymotrypsin): > 100 µM
CNC(=O)[C@@H]1C[C@H](n2cc(C3CC3)nn2)CN1C(=O)c1ccc(CN)c(OC)c1 | 2.1 µM | > 30 µM | –
COc1cc(C(=O)N2C[C@@H](n3cc(C4CC4)nn3)C[C@H]2C(=O)N[C@@H]2C[C@H]2c2ccccc2)ccc1CN | 0.11 µM | 22 µM | –
CNC(=O)[C@@H]1C[C@H](N2CCc3c(cccc3OC)C2)CN1C(=O)c1ccc(CN)c(OC)c1 | 0.1 µM | > 30 µM | –
COc1cc(C(=O)N2C[C@@H](n3cc(C4CC4)nn3)C[C@H]2C(=O)N2CC[C@H](c3ccccc3)C2)ccc1CN | 0.22 µM | 14 µM | –
CNC(=O)[C@@H]1C[C@H](N2CCc3c(ncnc3OCCC3CC3)C2)CN1C(=O)c1ccc(CN)c(OC)c1 | 0.006 µM | > 30 µM | –
COc1cc(C(=O)N2C[C@@H](n3cc(C4CC4)nn3)C[C@H]2C(=O)NCC(c2ccccc2)c2ccccc2)ccc1CN | 0.011 to 0.014 µM | 2.4 µM | pKa [2]: 9.2; solubility [3]: > 1000 µM; clearance [5]: 33 mL/min/kg; AUC(0-t) at 24 h [6]: 1.03 µM·h; IC50 (Prothrombin): 27 µM; IC50 (Coagulation factor X): 31 µM; IC50 (Neutrophil elastase): 55 µM; IC50 (Chymotrypsin): 15 µM
CNC(=O)[C@@H]1C[C@H](N2CCc3ccccc3C2)CN1C(=O)c1ccc(CN)c(OC)c1 | 0.49 µM | > 30 µM | –
CNC(=O)[C@@H]1C[C@H](N2CCc3c(cccc3OCCC3CC3)C2)CN1C(=O)c1ccc(CN)c(OC)c1 | 0.002 µM | 11 µM | –
COc1cc(C(=O)N2C[C@@H](n3cc(C4CC4)nn3)C[C@H]2C(=O)N[C@H]2C[C@@H]2c2ccccc2)ccc1CN | 0.96 µM | – | –
CNC(=O)[C@@H]1C[C@H](N2CCc3c(cccc3OCCOC)C2)CN1C(=O)c1ccc(CN)c(OC)c1 | 0.008 µM | > 30 µM | solubility [3]: > 1000 µM; clearance [5]: 9 mL/min/kg; AUC(0-t) at 24 h [6]: 3.88 µM·h; IC50 (Prothrombin): > 100 µM; IC50 (Coagulation factor X): > 100 µM; IC50 (Neutrophil elastase): > 100 µM; IC50 (Chymotrypsin): > 100 µM
COc1cc(C(=O)N2C[C@@H](n3cc(C4CC4)nn3)C[C@H]2C(=O)NCCc2ccccc2)ccc1CN | 0.16 µM | – | –
COc1cc(C(=O)N2C[C@@H](n3cc(C4CC4)nn3)C[C@H]2C(=O)N2CC[C@@H](c3ccccc3)C2)ccc1CN | 0.33 µM | – | –
Cc1cc(C(=O)N2C[C@@H](n3cc(C4CC4)nn3)C[C@H]2C(=O)NCC(c2ccccc2)c2ccccc2)ccc1CN | 0.11 µM | – | pKa [2]: 8.7
